Test results reported in patent US5292732A, “Pyrrolopyrazine derivatives” (Hoffmann-La Roche Inc., priority 1991, dated 1994).

Columns and labels:
MAO (substrate 5-HT) = molecular target: T1, MAO (substrate 5-HT) (Rattus norvegicus, UniProt P21396); experiment: MAO inhibition in vitro, rat brain homogenate, substrate 14C-labelled serotonin (5-HT); format: biochemical; details: substrate 5-HT 2×10^-4 M, 37° C.
T1 construct: 20 μl of rat brain homogenate; from tissue; host or cells: rat brain homogenate
T1 sequence (P21396 1-526): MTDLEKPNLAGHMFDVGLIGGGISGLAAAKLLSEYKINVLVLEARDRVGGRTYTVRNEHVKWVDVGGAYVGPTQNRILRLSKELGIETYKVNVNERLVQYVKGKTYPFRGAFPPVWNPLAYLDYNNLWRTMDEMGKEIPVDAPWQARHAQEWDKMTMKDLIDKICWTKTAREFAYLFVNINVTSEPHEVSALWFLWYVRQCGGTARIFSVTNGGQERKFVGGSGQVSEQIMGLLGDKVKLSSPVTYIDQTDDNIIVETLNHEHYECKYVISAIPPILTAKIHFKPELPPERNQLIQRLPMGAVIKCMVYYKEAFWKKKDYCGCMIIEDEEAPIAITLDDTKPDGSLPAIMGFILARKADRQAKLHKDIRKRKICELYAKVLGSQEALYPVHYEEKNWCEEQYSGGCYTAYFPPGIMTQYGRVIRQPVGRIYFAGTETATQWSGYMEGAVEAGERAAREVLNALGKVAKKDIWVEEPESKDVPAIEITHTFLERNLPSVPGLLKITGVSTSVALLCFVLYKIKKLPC
Method: (§1) The MAO inhibiting activity of the compounds in accordance with the invention can be determined in vitro or ex vivo using standard methods. The preparations to be tested were investigated in the tests described hereinafter, which were based on the methods of R. J. Wurtmann and J. A. Axelrod [Biochem. Pharmac. 12, 1439-41 (1963).
(§2) Isolated rat brains are homogenized in 0.1 molar potassium phosphate buffer (pH 7.4) in the ratio 1:4 (weight/volume), the homogenate is diluted with the same buffer in the ratio 1:5 (volume/volume) and stored at -20° C. A mixture of the following composition was used for the incubation:
(§3) 100 μl of 1M phosphate buffer (pH 6.7);
(§4) 100 μl of solution of the substance to be tested in water or in 10% aqueous dimethyl sulphoxide;
(§5) 20 μl of rat brain homogenate; and as the substrate
(§6) 80 μl of ^14 C-labelled serotonin (5-HT) or ^14 C-labelled phenylethylamine (PEA), the radioactive concentration of which amounts to 100,000 decay per minute and which is used in a final concentration of 2×10^-4 M and, respectively, 2×10^-5 M.
(§7) A pre-incubation at 37° C. is effected for 30 minutes prior to the addition of the substrate. The incubation (in the presence of the substrate) is likewise effected at 37° C. and lasts for 10 minutes. The reaction is stopped by the addition of 200 μl of 2N hydrochloric acid.
(§8) In order to extract the desaminated product, the mixture is shaken for 10 minutes with 5 ml of diethyl ether or with 5 ml of n-heptane depending on whether 5-HT or PEA is used as the substrate, whereupon the mixture is centrifuged, the aqueous phase is frozen in a dry-ice bath, the organic phase is transferred into a counting glass and the radioactive concentration is determined in a β-counter.
(§9) The activity of the MAO in comparison to the control homogenates (without substance to be tested) is obtained on the basis of the β-values and the IC50 is defined as that concentration of a substance to be tested which reduces the activity of the MAO upon the substrate 5-HT or PEA by 50%.

MAO (substrate PEA) = molecular target: T2, MAO (substrate PEA) (Rattus norvegicus, UniProt P19643); experiment: MAO inhibition in vitro, rat brain homogenate, substrate 14C-labelled phenylethylamine (PEA); format: biochemical; details: substrate PEA 2×10^-5 M, 37° C.
T2 construct: 20 μl of rat brain homogenate; from tissue; host or cells: rat brain homogenate
T2 sequence (P19643 1-520): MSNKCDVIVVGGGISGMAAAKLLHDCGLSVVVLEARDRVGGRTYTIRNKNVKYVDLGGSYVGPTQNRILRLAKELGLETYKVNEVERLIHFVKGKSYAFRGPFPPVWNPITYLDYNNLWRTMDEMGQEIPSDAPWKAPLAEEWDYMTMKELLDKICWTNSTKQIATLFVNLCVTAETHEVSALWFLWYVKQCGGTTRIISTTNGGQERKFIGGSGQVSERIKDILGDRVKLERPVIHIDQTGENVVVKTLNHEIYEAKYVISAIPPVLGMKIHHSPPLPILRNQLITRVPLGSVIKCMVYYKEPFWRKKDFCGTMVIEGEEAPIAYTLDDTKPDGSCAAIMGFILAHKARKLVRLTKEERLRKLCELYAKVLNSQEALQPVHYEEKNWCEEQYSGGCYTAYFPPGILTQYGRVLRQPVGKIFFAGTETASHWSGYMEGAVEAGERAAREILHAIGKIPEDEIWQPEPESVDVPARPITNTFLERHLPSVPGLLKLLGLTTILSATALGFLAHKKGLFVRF
Method: as §1, §2, §3, §4, §5, §6, §7, §8, §9

[1] = tested on: MAO in the brain (substrate 5-HT); experiment: MAO inhibition ex vivo in brain of rats, substrate 5-HT; design: species or system male albino rats (Fu-SPF); details: rat, 100 μmol/kg orally, 2 hrs., given in percentage of the control values
Method: as §1
(§10) The compounds to be tested are investigated for the inhibition of MAO in the brain and liver of male albino rats (Fu-SPF, 100-140 g. The test compounds are administered orally as a solution or suspension in water in a dosage of 100 μmol per kilogram body weight. After 2 hrs. the animals are narcotized and decapitated. The brain (without cerebellum) and a portion of the liver are dissected out and submitted analogously to the above-described procedure for the determination of the MAO inhibiting activity, whereby the amount of enzyme used is 20 μl of a 1:20 homogenate in the case of brain and 20 μl of a 1:80 homogenate in the case of liver. The activity of the compounds is determined from a comparison of the β-values with the values for control animals treated with vehicle and is given in percentage of the control values.

[2] = tested on: MAO in the brain (substrate PEA); experiment: MAO inhibition ex vivo in brain of rats, substrate PEA; design: species or system male albino rats (Fu-SPF); details: rat, 100 μmol/kg orally, 2 hrs., given in percentage of the control values
Method: as §1, §10

[3] = tested on: MAO in the liver (substrate 5-HT); experiment: MAO inhibition ex vivo in liver of rats, substrate 5-HT; design: species or system male albino rats (Fu-SPF); details: rat, 100 μmol/kg orally, 2 hrs., given in percentage of the control values
Method: as §1, §10

[4] = tested on: MAO in the liver (substrate PEA); experiment: MAO inhibition ex vivo in liver of rats, substrate PEA; design: species or system male albino rats (Fu-SPF); details: rat, 100 μmol/kg orally, 2 hrs., given in percentage of the control values
Method: as §1, §10

| IC50 (MAO (substrate 5-HT)) | IC50 (MAO (substrate PEA)) | SMILES | Remaining brain MAO activity, 5-HT (% of control) [1] | Remaining brain MAO activity (PEA), % of control [2] | MAO inhibition, Liver, 5HT [3] | Remaining liver MAO activity (PEA), % of control [4] |
| --- | --- | --- | --- | --- | --- | --- |
| 2 nM | > 1000 nM | CC1=NCCn2c1cc1c2-c2ccc(C)cc2CC1 [5,6,10,11-tetrahydro-3,8-dimethylbenzo[g]pyrazino[1,2-a]indole] | 43% | 82% | 17% | 96% |
| 0.4 nM | 14 nM | CC1=NCCn2c1cc1c2-c2ccc(OC(C)C)cc2CC1 [5,6,10,11-tetrahydro-3-isopropoxy-8-methylbenzo[g]pyrazino[1,2-a]indole] | 8% | 60% | 10% | 75% |

| SMILES | IC50 (MAO (substrate 5-HT)) | IC50 (MAO (substrate PEA)) | Remaining brain MAO activity, 5-HT (% of control) [1] | Remaining brain MAO activity (PEA), % of control [2] | MAO inhibition, Liver, 5HT [3] | Remaining liver MAO activity (PEA), % of control [4] |
| --- | --- | --- | --- | --- | --- | --- |
| CC1=NCCn2c1ccc2-c1ccc(OC2CCCC2)cc1 [6-[p-(Cyclopentyloxy)phenyl]-3,4-dihydro-1-methylpyrrolo[1,2-a]pyrazine] | 10 nM | < 1 nM | 67% | 33% | 38% | 56% |
